From patent US9884821B2, “N1-cyclic amine-N5-substituted biguanide derivatives, methods of preparing the same and pharmaceutical composition comprising the same” (IMMUNOMET THERAPEUTICS INC., priority 2013, dated 2018) come the findings set out here.

The subject of one experiment is AMPK. Kind of experiment: AMPK activation effect (AMPK [pT172] ELISA) in MCF7 cells. Format: cell-based, human. As to conditions: 24 hours; for AMPK activation effect (%) 10 μM / AMPK activation effect (%) 50 μM / AMPK activation effect (%) 5 μM: AMPKα Thr172 phosphorylation relative to untreated cells; for AC150: concentration at which AMPK activation reached 150%. As for the experimental part: ELISA kit (Invitrogen, Catalog No. KH00651).
MCF7 cells were cultured in a DMEM medium supplemented with 10% fatal bovine serum (commercially available from Gibco Life Technologies (US)). Thereafter, the cultured MCF7 cells were put into a 6-well plate with approximately 5×10^5 cells per well, and cultured in an incubator supplied with 5% CO2. Culture media were treated with the derivatives synthesized in the Examples at concentrations of 5, 10 and 50 uM, and then cultured for 24 hours. […] Subsequently, the cells were lysed according to a method presented in the operation manual of the AMPK [pT172] ELISA kit, and 20 μg of a cell lysate was then yielded through protein assay. Thereafter, the AMPK activation effect was obtained by determining a degree of phosphorylation of a 172nd threonine residue (Thr172) of the AMPKα from the cell lysate according to the method presented in the operation manual of the AMPK [pT172] ELISA kit.
Background: ELISA stands for enzyme-linked immunosorbent assay.

Another experiment relates to HCT116 cells. Kind of experiment: Effect of inhibiting cancer cell proliferation (MTT) in HCT116 cells. Format: cell-based, human. As to conditions: Homo sapiens, HCT-116, 48 h; for inhibition at 100 µM: read-out: Cell growth inhibition (%) at 100 μM; for inhibition at 25 µM: read-out: Cell growth inhibition (%) at 25 μM. The source says: HCT116 cells derived from human colorectal cancer were used, and an effect of inhibiting cancer cell proliferation of the biguanide derivative was confirmed by measuring a concentration value (cell growth inhibition concentration, GIC50) at which cell growth was inhibited by 50% using a 3-(4,5-dimethylthiazol-2-yl)-2,5-diphenyltetrazolium bromide (MTT) reagent.
First, HCT116 cells (purchased from the KCLB) were put on a 96-well plate and cultured in a DMEM medium supplemented with 10% fatal bovine serum (commercially available from Gibco Life Technologies (US)) for 16 hours so that approximately 5,000 cells were counted in each well. Subsequently, to obtain the GIC50 value of each compound, the culture media were treated with 100 μM, 25 μM, 6.25 μM, 1.56 μM or 0.39 μM of the compound, and then cultured for 48 hours. In order to determine whether the cells survived after treatment with the compounds, MTT (commercially available from AMRESCO (US)) was added to the culture media which were then cultured for another 3 hours. Formed formazane crystals were dissolved using dimethyl sulfoxide (DMSO) and the absorbance of the resulting solution was measured at 560 nm. After the 48-hour culture, a ratio of a living cell count on a well plate treated with the compounds synthesized in the Examples to a cell count cultured on a well plate not treated with the compound was indicated as cell viability (%) according to the concentration of each treated compound. The cell viability (%) was used to plot a cell viability curve graph and calculate a concentration (GIC50) value of the compound at which the growth was inhibited by 50%, thereby confirming the inhibition effect of cancer cell proliferation.

On to `COc1cc(NC(=N)NC(=N)N2CC=CC2)cc(OC)c1.Cl` [Example 45, N1-1,2-dihydropyrrole-N5-(3,5-dimethoxy)phenyl biguanide hydrochloride], for which, in the experiment with AMPK, the “AMPK activation effect (%) 10 μM” value was found to be 202%, the “AMPK activation effect (%) 50 μM” value came to 299% and the AC150 worked out at 4.8 µM. In the experiment with HCT116 cells, halving of growth (GI50) required 107 µM and the inhibition – broadly, how much of the control response was suppressed – at 100 µM was found to be 47.2%.

For the molecule `Cl.N=C(NC(=N)N1CC=CC1)Nc1ccc(F)c(C(F)(F)F)c1` [Example 46, N1-1,2-dihydropyrrole-N5-(4-fluoro, 3-trifluoromethyl)phenyl biguanide hydrochloride], in the experiment on AMPK, the “AMPK activation effect (%) 10 μM” value stood at 448% and the AC150 was 1.6 µM. Moreover, in the experiment on HCT116 cells, halving of growth (GI50) required 12 µM and the inhibition at 100 µM is 100%.

For `Cl.N=C(NC(=N)N1CC=CC1)Nc1ccc(C(F)(F)F)c(F)c1` [Example 47, N1-1,2-dihydropyrrole-N5-(3-fluoro, 4-trifluoromethyl)phenyl biguanide hydrochloride], in the experiment with AMPK, the “AMPK activation effect (%) 10 μM” value is recorded as 758% and the AC150 was found to be 1.0 µM. In the experiment with HCT116 cells, the concentration for 50% growth inhibition (GI50) (in general, the concentration giving 50% growth inhibition) came out at 10.8 µM and the inhibition at 100 µM came out at 100%.

For `Cc1ccc(NC(=N)NC(=N)N2CC=CCC2)cc1.Cl` [Example 48, N1-1,2,3,6-tetrahydropyridine-N5-(4-methyl)phenyl biguanide hydrochloride], in the experiment on AMPK, the “AMPK activation effect (%) 10 μM” value is reported as 178%, the “AMPK activation effect (%) 50 μM” value is 691% and the AC150 was determined as 4.9 µM. Also, in the experiment on HCT116 cells, the concentration for 50% growth inhibition (GI50) was 42.5 µM and the inhibition at 100 µM worked out at 97.6%.

For `Cc1cccc(NC(=N)NC(=N)N2CC=CCC2)c1.Cl` [Example 49, N1-1,2,3,6-tetrahydropyridine-N5-(3-methyl)phenyl biguanide hydrochloride], in the experiment on AMPK, the “AMPK activation effect (%) 10 μM” value was 319%, the “AMPK activation effect (%) 50 μM” value came to 917% and the AC150 stood at 1.9 µM. For the same molecule, in the experiment on HCT116 cells, it took 57 µM to inhibit growth by half (GI50) and the inhibition at 100 µM amounted to 91.8%.

Regarding `Cc1cccc(NC(=N)NC(=N)N2CC=CC2)c1.Cl` [Example 51, N1-1,2-dihydropyrrole-N5-(3-methyl)phenyl biguanide hydrochloride], in the experiment with AMPK, the “AMPK activation effect (%) 10 μM” value worked out at 241%, the “AMPK activation effect (%) 50 μM” value was determined as 409% and the AC150 was found to be 3.1 µM. Besides, in the experiment with HCT116 cells, it took 102 µM to inhibit growth by half (GI50) and the inhibition at 100 µM was found to be 48.7%.

As for `Cl.N=C(NC(=N)N1CC=CC1)Nc1cccc(OC(F)(F)F)c1` [Example 52, N1-1,2-dihydropyrrole-N5-(3-trifluoromethoxy)phenyl biguanide hydrochloride], in the experiment with AMPK, the “AMPK activation effect (%) 10 μM” value was determined as 352% and the AC150 was found to be 2.7 µM. Further, in the experiment with HCT116 cells, the concentration for 50% growth inhibition (GI50) came to 15.4 µM and the inhibition at 100 µM is 100%.

With `CCCCCCNC(=N)NC(=N)N1CC=CCC1.Cl` [Example 53, N1-1,2,3,6-tetrahydropyridine-N5-hexyl biguanide hydrochloride], in the experiment on AMPK, the “AMPK activation effect (%) 10 μM” value was determined as 311%, the “AMPK activation effect (%) 50 μM” value worked out at 589% and the AC150 worked out at 2.3 µM. Besides, in the experiment on HCT116 cells, the GI50 came to 43.7 µM and the inhibition at 100 µM came out at 97.9%.

On to `Cl.N=C(NCc1ccc(OC(F)(F)F)cc1)NC(=N)N1CC=CCC1` [Example 54, N1-1,2,3,6-tetrahydropyridine-N5-(4-trifluoromethoxy)benzyl biguanide hydrochloride], for which, in the experiment with AMPK, the “AMPK activation effect (%) 10 μM” value turned out to be 545%, the “AMPK activation effect (%) 50 μM” value is reported as 650% and the AC150 was determined as 0.87 µM. Further, in the experiment on HCT116 cells, the GI50 worked out at 14.6 µM and the inhibition at 100 µM came out at 98.1%.

In the case of `Cl.N=C(NCc1cccc(OC(F)(F)F)c1)NC(=N)N1CC=CCC1` [Example 55, N1-1,2,3,6-tetrahydropyridine-N5-(3-trifluoromethoxy)benzyl biguanide hydrochloride], in the experiment with AMPK, the “AMPK activation effect (%) 10 μM” value stood at 389%, the “AMPK activation effect (%) 50 μM” value came to 608% and the AC150 came to 2.1 µM. Moreover, in the experiment with HCT116 cells, the 50% growth inhibitory concentration (GI50) is 22.8 µM and the inhibition at 100 µM came to 97.9%.

Consider `Cl.N=C(NCc1ccc(C(F)(F)F)cc1)NC(=N)N1CC=CCC1` [Example 56, N1-1,2,3,6-tetrahydropyridine-N5-(4-trifluoromethyl)benzyl biguanide hydrochloride], for which, in the experiment on AMPK, the “AMPK activation effect (%) 10 μM” value is recorded as 389%, the “AMPK activation effect (%) 50 μM” value is 671% and the AC150 is 2.1 µM. Besides, in the experiment with HCT116 cells, the GI50 stood at 26.9 µM and the inhibition at 100 µM was 97.7%.

As to `Cl.N=C(NCc1cccc(C(F)(F)F)c1)NC(=N)N1CC=CCC1` [Example 57, N1-1,2,3,6-tetrahydropyridine-N5-(3-trifluoromethyl)benzyl biguanide hydrochloride], in the experiment with AMPK, the “AMPK activation effect (%) 10 μM” value is 279%, the “AMPK activation effect (%) 50 μM” value amounted to 579% and the AC150 came to 2.7 µM. Further, in the experiment with HCT116 cells, growth was halved (GI50) at 26.9 µM and the inhibition at 100 µM turned out to be 97.8%.

For `Cl.N=C(NCc1ccc(Cl)c(C(F)(F)F)c1)NC(=N)N1CC=CCC1` [Example 58, N1-1,2,3,6-tetrahydropyridine-N5-(4-chloro, 3-trifluoromethyl)benzyl biguanide hydrochloride], in the experiment with AMPK, the “AMPK activation effect (%) 10 μM” value is 500% and the AC150 amounted to 1.8 µM. Besides, in the experiment on HCT116 cells, the GI50 was 7.9 µM and the inhibition at 100 µM is 98.4%.

In the case of `CCCCNC(=N)NC(=N)N1CC=CCC1.Cl` [Example 59, N1-1,2,3,6-tetrahydropyridine-N5-butyl biguanide hydrochloride], in the experiment with AMPK, the “AMPK activation effect (%) 10 μM” value came to 104%, the “AMPK activation effect (%) 50 μM” value was determined as 283% and the AC150 is 16.6 µM. In the experiment on HCT116 cells, it took 141 µM to inhibit growth by half (GI50) and the inhibition at 100 µM was found to be 44.5%.

Regarding `CCCNC(=N)NC(=N)N1CC=CCC1.Cl` [Example 60, N1-1,2,3,6-tetrahydropyridine-N5-propyl biguanide hydrochloride], in the experiment on AMPK, the “AMPK activation effect (%) 10 μM” value came out at 108%, the “AMPK activation effect (%) 50 μM” value amounted to 338% and the AC150 worked out at 12.4 µM. Further, in the experiment on HCT116 cells, the GI50 was found to be 99.8 µM and the inhibition at 100 µM came out at 50.1%.

Regarding `Cl.N=C(N)NC(=N)N1CC=CCC1` [Example 61, N1-1,2,3,6-tetrahydropyridine biguanide hydrochloride], in the experiment with AMPK, the “AMPK activation effect (%) 10 μM” value is given as 123%, the “AMPK activation effect (%) 50 μM” value was 132% and the AC150 was more than 50 µM. Further, in the experiment with HCT116 cells, the 50% growth inhibitory concentration (GI50) is more than 100 µM and the inhibition at 100 µM was determined as 10.5%.

`CC1CCCN(C(=N)NC(=N)NCc2cccc(C(F)(F)F)c2)C1.Cl` (stereo not drawn) [Example 65, N1-(3-methyl)piperidine-N5-(3-trifluoromethyl)benzyl biguanide hydrochloride]: in the experiment with AMPK, the “AMPK activation effect (%) 5 μM” value was determined as 147%, the “AMPK activation effect (%) 10 μM” value worked out at 274% and the AC150 came to 2.8 µM. Besides, in the experiment with HCT116 cells, the concentration for 50% growth inhibition (GI50) amounted to 18.3 µM and the inhibition at 25 µM was 66.7%.

On to `CC1CCCN(C(=N)NC(=N)NCc2ccc(Cl)cc2)C1.Cl` (stereo not drawn) [Example 66, N1-(3-methyl)piperidine-N5-(4-chloro)benzyl biguanide hydrochloride], for which, in the experiment with AMPK, the “AMPK activation effect (%) 5 μM” value was found to be 101%, the “AMPK activation effect (%) 10 μM” value was 204% and the AC150 was 6.2 µM. In the experiment on HCT116 cells, the GI50 was 18.5 µM and the inhibition at 25 µM is 67.4%.

As for `CC1CCCN(C(=N)NC(=N)Nc2ccc(F)cc2)C1.Cl` (stereo not drawn) [Example 67, N1-(3-methyl)piperidine-N5-(4-fluoro)phenyl biguanide hydrochloride], in the experiment on AMPK, the “AMPK activation effect (%) 5 μM” value worked out at 258%, the “AMPK activation effect (%) 10 μM” value worked out at 427% and the AC150 was found to be 1.6 µM. For the same molecule, in the experiment on HCT116 cells, halving of growth (GI50) required 9.2 µM and the inhibition at 25 µM was 100%.

As to `CC1CCCN(C(=N)NC(=N)Nc2ccc(Br)cc2)C1.Cl` (stereo not drawn) [Example 68, N1-(3-methyl)piperidine-N5-(4-bromo)phenyl biguanide hydrochloride], in the experiment with AMPK, the “AMPK activation effect (%) 5 μM” value is 52%, the “AMPK activation effect (%) 10 μM” value is listed as 136% and the AC150 came out at 13.7 µM. In the experiment with HCT116 cells, the concentration for 50% growth inhibition (GI50) is 45.3 µM and the inhibition at 25 µM worked out at 29.4%.
